Data as given in paper PMC7219108, “Pisum sativum Defensin 1 Eradicates Mouse Metastatic Lung Nodules from B16F10 Melanoma Cells” (International Journal of Molecular Sciences, 2020).

Experiments:
[1] = tested on: HEK-293 (human embryonic kidney) cells; experiment: Cell viability, healthy HEK-293 cells; format: cell-based; settings: 3 h
C57BL/6 mice = experiment: Toxicity observation in mice given Psd1 alone; format: in vivo
Experimental: Another group of animals received 1 mg/kg of Psd1 only (n = 9) to evaluate Psd1 toxicity. Twenty-one days later, the animals were anaesthetized and sacrificed, and the black lung melanoma nodules were counted and measured under a dissecting microscope (Zeiss AxioPhot fluorescence microscope (Carl-Zeiss, Oberkochen, Germany)).

recombinant cyclin F-GST = experiment: Surface plasmon resonance, Psd1-cyclin F interaction; format: binding
Experimental: Surface plasmon resonance (SPR) assays were run on a Biacore X (GE Healthcare Life Sciences, Amersham, UK) apparatus in real time using a CM5 sensor chip at 25 °C. Briefly, CM5 chip activation was performed by injection of 100 µL of a 1:1 mixture of amine coupling kit (750 mg 1-ethyl-3-(3-dimethylaminopropyl) carbodiimide hydrochloride (EDC), 115 mg N-hydroxysuccinimide (NHS), 2 × 10.5 mL 1.0 M ethanolamine-HCl pH 8.5) with a continuous flow of 2 µL/min. Then, 100 µL of […] recombinant cyclin F-GST diluted in 10 mM sodium acetate pH 4.0 buffer was immobilized by amine coupling onto the carboxylate dextran layer of CM5 with the same flow. This was injected with 80 µL of 1 M ethanolamine pH 8.0 to block the remaining binding free sites of the protein. To evaluate the interaction of Psd1 with the cyclin F protein, increasing concentrations of the peptide (10–240 µM) in 100 µL of running buffer (10 mM HEPES, 150 mM NaCl, pH 7.4) were injected using a flow rate of 15 µL/min for 4 min. After the injection ended, the dissociation phase was measured in not less than 300 s. The Psd1-GST-cyclin F interaction curves were subtracted from the respective curves obtained for Psd1-GST to discount possible artifact interactions with GST alone. […]

several fungal species = settings: cited from earlier work
Description: (§1) The mechanism of action proposed for Psd1 antifungal activity includes its interaction with specific cell wall/membrane lipid targets, such as C8-desaturated and C9-methylated glucosylceramide (GlcCer), a fungal exclusive GSL, and ergosterol.

[2] = cited from earlier work
Description: as §1

[3] = tested on: A-431 (human epidermoid carcinoma) cells; experiment: MTT cell viability, A-431 tumor cells; format: cell-based; settings: 24 h, p < 0.001

Psd1: 46-amino acid residue plant defensin isolated from pea seeds, expressed in Pichia pastoris (PDB 1JKZ) (KTCEHLADTYRGVCFTNASCDDHCKNKAHLISGTCHNWKCFCTQNC)
HEK-293 cell viability [1]: no alteration in cell viability | Inflammation in lung tissue, weight or vital signal losses (C57BL/6 mice; 1 mg/kg Psd1 alone, over 21 days): did not provoke inflammation in lung tissue or weight or vital signal losses over 21 days | Behavior signals / mortality (C57BL/6 mice; Psd1 alone (1 mg/kg i.v.), vs PBS): did not present changes in important behavior signals, such as changes in locomotion, piloerection, diarrhea, or mortality | SPR association phase, onset of response (recombinant cyclin F-GST; after Psd1 injection, 15 µL/min, 4 min): 80 s | SPR dissociation phase (recombinant cyclin F-GST; after injection ended): full dissociation phase was observed | Antimicrobial activity against fungi (several fungal species): well-documented antimicrobial activity against several fungal species | Affinity to cholesterol-enriched lipid bilayers [2]: does not show good affinity | A-431 growth, result in words (MTT) ([3]; 12.5 µM): decreased growth | Maximum reduction of A-431 growth (MTT) ([3]; 50 µM): 20%
